Values joined by “and” are separate entries in the source; they are usually repeats but may differ in a detail not shown here. Identical values can stand only once. Like-named read-outs stand apart in the source and are kept apart here.
Columns and labels:
[1] = biological target: T1, rat α1β2γ2 GABAA Receptor (Rattus norvegicus, UniProt P18508+P62813+P63138, INS375LLRMFSFK); assay: Xenopus oocyte two-electrode voltage-clamp electrophysiology; format: cell-based; conditions: for Oocyte electrophysiology, ratio of currents in presence/absence of compound, 0.1 μM: 0.1 μM compound co-applied with 2 μM GABA; for Oocyte electrophysiology, ratio of currents in presence/absence of compound, 0.1 μM / Oocyte electrophysiology, ratio of currents in presence/absence of compound, 1 μM / Oocyte electrophysiology, ratio of currents in presence/absence of compound, 10 μM: −70 mV; for Oocyte electrophysiology, ratio of currents in presence/absence of compound, 1 μM: 1 μM compound co-applied with 2 μM GABA; for Oocyte electrophysiology, ratio of currents in presence/absence of compound, 10 μM: 10 μM compound co-applied with 2 μM GABA; for Gating (10 μM), ratio of compound only current/2 μM GABA current: direct current gated by 10 μM compound in the absence of GABA
T1 construct: from linearized pBluescript vectors containing receptor coding regions; expressed in transfected cells; host or cells: Xenopus laevis oocytes injected with in vitro transcribed capped mRNA
Protocol: Stage V-VI oocytes were harvested from sexually mature female Xenopus laevis (Xenopus One, Northland, Mich.) under 0.1% tricaine (3-aminobenzoic acid ethyl ester) anesthesia. Oocytes were defolliculated by shaking for 20 min at 37° C. in collagenase (2 mg/ml) dissolved in calcium-free solution containing (in mM): 96 NaCl, 2 KCl, 1 MgCl2, and 5 HEPES at pH 7.4. Capped mRNA, encoding rat GABAA receptor α1, β2 and γ2L subunits was transcribed in vitro using the mMESSAGE mMachine Kit (Ambion, Austin, Tex.) from linearized pBluescript vectors containing receptor coding regions. Subunit transcripts were injected in equal parts (20-40 ng total RNA) 8-24 hours following defolliculation. Oocytes were incubated up to 5 days at 18° C. in ND96 medium containing (in mM): 96 NaCl, 1 KCl, 1 MgCl2, 2 CaCl2 and 5 HEPES at pH 7.4, supplemented with pyruvate (5 mM), penicillin (100 U/ml), streptomycin (100 μg/ml) and gentamycin (50 μg/ml). The cDNAs for the rat GABAA-receptor subunits were originally provided by A. Tobin, University of California, Los Angels (α1), P. Malherbe, Hoffman-La Roche, Switzerland (β2), C. Fraser, National Institute on Alcohol Abuse and Alcoholism (γ2L).
Two-electrode voltage-clamp experiments were performed with a Warner OC725 amplifier 2-5 days following RNA injection. The extracellular recording solution was ND96 medium with no supplements. Intracellular recording pipettes were filled with 3 M KCl and had open tip resistances of ˜1 MΩ. Drugs were applied from a common tip via a gravity-driven multibarrel drug-delivery system. Steroids were simultaneously co-applied with GABA. Cells were clamped at −70 mV for all experiments, and peak current during 20 s drug applications was measured. Data acquisition and analysis were performed with pCLAMP software (Axon Instruments, California). Statistical differences were determined using a two-tailed Student's t-test.
The GABA concentration used for the control response was 2 μM. Each compound was evaluated on at least four different oocytes at the concentrations indicated, and the results reported are the ratio of the currents measured in the presence/absence of added compound. (G) represents direct current gated by 10 μM compound in the absence of GABA, and this current is reported as the ratio of compound only current/2 μM GABA current. Error limits are calculated as standard error of the means.

Xenopus laevis tadpoles = assay: Tadpole loss of righting (LRR) and swimming (LSR) reflexes; format: in vivo; conditions: 3 h equilibration at room temperature; for EC50: read-out: LSR EC50 (loss of swimming response)
Protocol: Tadpole LRR was measured as described previously. (See, Wittmer, L. L., et al., Enantioselectivity of steroid-induced γ-aminobutyric acidA receptor modulation and anesthesia, Mol. Phar., 1996, 50:1581-1586). Briefly, groups of 10 early prelimb-bud stage Xenopus laevis tadpoles (Nasco, Fort Atkinson, Wis.) were placed in 100 mL of oxygenated Ringer's stock solution containing various concentrations of compound. Compounds were added from a 10 mM DMSO stock (final concentration of DMSO in test solutions ≦0.1%). After equilibrating at room temperature for 3 h, tadpoles were evaluated using the LRR and LSR behavioral endpoints. LRR was defined as failure of the tadpole to right itself within 5 sec after being flipped by a smooth glass rod. LSR was defined as failure of the tadpole to swim when touched by a smooth glass rod. In general, the tadpoles regained their righting and swimming reflexes when placed in fresh oxygenated Ringer's solution. Control beakers containing up to 0.6% DMSO produced no LRR or LSR in tadpoles.
Tadpole LRR and LSR concentration-response curves were fit using Sigma Plot version 3.0 to the Hill equation f=Rmax/{1+([conc]/EC50)^n}
where Rmax is the maximum effect, [conc] is the steroid concentration, EC50 is the half-maximal effective concentration, and n is the Hill coefficient.

[2] = biological target: GABAA receptor ([35S]-TBPS binding site, rat brain cortical membranes); assay: Displacement of [35S]-TBPS binding, rat brain cortical membranes; conditions: 5 μM GABA, 2 nM [35S]-TBPS; ± standard error of the means
Protocol: Rat brain cortical membranes were prepared with minor modifications of the method previously reported. (Hawkinson, J. E., et al., Correlation of Neuroactive Steroid Modulation of [^35S]t-Butylbicyclophosophorothionate and [^3H]Flunitrazepam Binding and γ-Aminobutyric AcidA Receptor Function, Mol. Pharmacol., 1994, 46, 977-985). Briefly, frozen rat cerebral cortices (Pel-freez, Rogers, Ak.) were thawed and homogenized in 10 volumes of ice-cold 0.32 M sucrose using a glass/Teflon pestle. The homogenate was centrifuged at 1500×g for 10 min at 4° C. The resultant supernatant was centrifuged at 10,000×g for 30 min at 4° C. The pellet (P2) from this centrifugation was resuspended in 200 mM NaCl, 50 mM potassium phosphate buffer, pH 7.4, and centrifuged at 10,000×g for 20 min at 4° C. This washing procedure was done a total of three times, and then pellets were resuspended in buffer (˜4 mL/brain) using a glass/Teflon pestle. The membrane suspension was aliquoted, frozen in liquid nitrogen, and stored at −80° C. prior to use.
[^35S]-TBPS Binding assays were done according to the procedure described previously (Hawkinson, J. E., et al., Correlation of Neuroactive Steroid Modulation of [^35S]t-Butylbicyclophosophorothionate and [^3H]Flunitrazepam Binding and γ-Aminobutyric AcidA Receptor Function, Mol. Pharmacol., 1994, 46, 977-985) with modifications. Briefly, aliquots of membrane solution (0.5 mg/mL final protein concentration in assay) were incubated with 5 μM GABA, 2 nM [^35S]-TBPS (45-120 Ci/mmol), and 5 μL aliquots of steroid in DMSO solution (final assay concentrations ranged from 1 nM to 10 μM), and brought to a final volume of 1 mL with 200 mM NaCl, 50 mM potassium phosphate buffer, pH 7.4. […] Assay tubes were incubated for 2 hr at room temperature. A Brandel (Gaithersburg, Md.) cell harvester was used for filtration of the assay tubes through Whatman/GF/C glass filter paper. Filter paper was rinsed with 4 mL of ice-cold buffer three times. Radioactivity bound to the filters was read by liquid scintillation counter and data was fit using Sigma Plot version 3.0 to the Hill equation i. f=Rmax/{1+([conc]/IC50)^n}
Where Rmax is the maximal effect, [conc] is steroid concentration, IC50 is the half-maximal inhibitor concentration and n is the Hill coefficient. Each data point was determined in triplicate and 2-3 full concentration-response curves were generated for each steroid.

T1 sequence (P62813 28-455, stated change not applied): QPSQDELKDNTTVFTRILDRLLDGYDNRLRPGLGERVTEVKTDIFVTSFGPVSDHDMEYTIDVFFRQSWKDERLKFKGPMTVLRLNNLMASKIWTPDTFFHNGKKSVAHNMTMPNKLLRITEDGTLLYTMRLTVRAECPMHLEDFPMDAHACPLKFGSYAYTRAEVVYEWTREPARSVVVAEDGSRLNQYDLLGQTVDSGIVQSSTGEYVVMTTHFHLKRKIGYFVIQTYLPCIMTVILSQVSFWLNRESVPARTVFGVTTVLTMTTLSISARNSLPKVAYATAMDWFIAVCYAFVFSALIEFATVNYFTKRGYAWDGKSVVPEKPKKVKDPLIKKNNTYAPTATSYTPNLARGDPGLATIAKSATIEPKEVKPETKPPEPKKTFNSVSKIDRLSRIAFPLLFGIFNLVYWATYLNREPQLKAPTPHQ
T1 sequence (P63138 26-474, stated change not applied): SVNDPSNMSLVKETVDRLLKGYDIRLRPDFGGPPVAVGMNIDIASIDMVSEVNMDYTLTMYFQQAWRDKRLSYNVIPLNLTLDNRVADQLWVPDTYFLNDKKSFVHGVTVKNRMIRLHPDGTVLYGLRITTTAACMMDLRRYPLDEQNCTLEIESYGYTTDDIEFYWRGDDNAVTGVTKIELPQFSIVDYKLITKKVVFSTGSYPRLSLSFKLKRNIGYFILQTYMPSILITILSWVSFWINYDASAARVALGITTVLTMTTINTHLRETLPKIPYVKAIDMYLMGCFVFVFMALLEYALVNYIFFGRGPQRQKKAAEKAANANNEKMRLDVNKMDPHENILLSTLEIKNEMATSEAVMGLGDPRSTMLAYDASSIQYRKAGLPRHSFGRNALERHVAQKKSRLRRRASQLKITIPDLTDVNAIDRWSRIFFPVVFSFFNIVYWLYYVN
T1 sequence (P18508 with tags, fused parts or gaps INS375LLRMFSFK): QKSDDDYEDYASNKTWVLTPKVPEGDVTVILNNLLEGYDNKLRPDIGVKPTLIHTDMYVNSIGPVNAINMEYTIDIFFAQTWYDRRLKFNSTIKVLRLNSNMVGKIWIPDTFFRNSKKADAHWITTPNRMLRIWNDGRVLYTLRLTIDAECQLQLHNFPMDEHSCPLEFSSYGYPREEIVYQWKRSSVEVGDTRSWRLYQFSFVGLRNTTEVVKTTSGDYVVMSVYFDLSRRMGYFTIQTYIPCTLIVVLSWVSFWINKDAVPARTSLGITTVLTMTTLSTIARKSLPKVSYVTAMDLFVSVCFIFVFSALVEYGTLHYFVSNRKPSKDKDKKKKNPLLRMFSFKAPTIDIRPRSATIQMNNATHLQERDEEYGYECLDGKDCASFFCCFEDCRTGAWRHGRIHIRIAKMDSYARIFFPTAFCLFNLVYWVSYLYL

Row | Compound | melting point | Oocyte electrophysiology, ratio of currents in presence/absence of compound, 0.1 μM [1] | Oocyte electrophysiology, ratio of currents in presence/absence of compound, 1 μM [1] | Oocyte electrophysiology, ratio of currents in presence/absence of compound, 10 μM [1] | Gating (10 μM), ratio of compound only current/2 μM GABA current [1] | LRR ED50 (loss of righting response) (Xenopus laevis tadpoles) | EC50 (Xenopus laevis tadpoles; Xenopus laevis, 3 h) | IC50 [2] | LSR EC50 (loss of swimming response) (Xenopus laevis tadpoles) | EC50 (Xenopus laevis tadpoles)
1 | C[C@]12CC[C@@H](O)C[C@@H]1CCC1C3CC[C@@H]4/C(=C/C#N)CCC[C@]34CCC12 (stereo partly drawn) [Compound 63, (3α,5α,20E)-3-Hydroxy-13,24-cyclo-18-norcholan-20-ene-21-carbonitrile] | 210 to 212 °C and 214 to 216 °C | 6.29 ± 1.71 | 12.34 ± 3.28 | 17.82 ± 3.75 | 0.01 ± 0.02 | 40 ± 0 nM | 80 ± 20 nM | 11 ± 1.8 nM | – | –
2 | CC12CCC(O)CC1CCC1C2CCC23CCC(=CC#N)C2CCC13 (stereo not drawn) [Compound 97, (3α,5α,20Z)-3-Hydroxy-18,21-cyclopregnan-20-ylideneacetonitrile] | 226 to 228 °C | 0.88 ± 0.07 | 0.87 ± 0.15 | 1.10 ± 0.08 | −0.02 ± 0.06 | >10000 nM | – | 17200 nM | None @ 10 | –
3 | C[C@]12CC[C@@H](O)C[C@@H]1CCC1C3CC[C@@H]4[C@@H]5O[C@@H]5CC[C@]34CCC12 (stereo partly drawn) [Compound 72, (3α,5α,20S,22R)-20,22-epoxy-13,24-cyclo-18,21-dinorcholan-3l] | 203.5 to 205 °C | 0.90 ± 0.15 | 2.20 ± 0.25 | 6.39 ± 1.33 | −0.01 ± 0.04 | 19300 ± 30800 nM | – | 323 ± 25 nM | None @ 10 | –
4 | CC12CCC(O)CC1CCC1C2CCC23C=CC(=O)CC2CCC13 (stereo not drawn) [Compound 30b, (3α,5β)-3-Hydroxy-13,24-cyclo-18,21-dinorchol-23-en-22-one] | 196.5 to 199 °C | 1.87 ± 0.24 | 1.80 ± 0.25 | 4.44 ± 0.87 | 0.26 ± 0.31 | 560 ± 900 nM | – | 4750 ± 970 nM | – | 5480 nM
5 | C[C@]12CC[C@@H](O)C[C@@H]1CCC1C3CC[C@@H]4C[C@@H](C#N)CC[C@]34CCC12 (stereo partly drawn) [Compound 44, (3α,5α,22S)-3-Hydroxy-13,24-cyclo-18,21-dinorcholane-22-carbonitrile] | 199 to 200 °C | 1.19 ± 0.02 | 1.14 ± 0.13 | 4.01 ± 0.42 | 0.03 ± 0.01 | 300 ± 30 nM | 6280 ± 1080 nM | 585 ± 30 nM | – | –
6 | CC12CCC(O)CC1CCC1C2CCC23C(=O)C=CCC2CCC13 (stereo not drawn) [Compound 35b, (3α,5β)-3-Hydroxy-13,24-cyclo-18,21-dinorchol-22-en-24-one] | 222 to 223 °C | 1.36 ± 0.60 | 3.15 ± 1.19 | 21.38 ± 11.08 | 0.20 ± 0.19 | 400 ± 130 nM | – | 105 ± 12 nM | – | 1000 nM
7 | C[C@]12CC[C@@H](O)C[C@@H]1CCC1C3CC[C@@H]4[C@H](C#N)CCC[C@]34CCC12 (stereo partly drawn) [Compound 39, (3α,5α,20R)-3-Hydroxy-13,24-cyclo-18,21-dinorcholane-20-carbonitrile] | 213 to 214 °C | 1.04 ± 0.03 | 1.12 ± 0.08 | 1.70 ± 0.10 | 0.04 ± 0.04 | 490 ± 90 nM | – | 1670 ± 138 nM | None @ 10 | –
8 | C[C@]12CC[C@@H](O)C[C@@H]1CCC1C3CC[C@@H]4[C@]5(CCC[C@]34CCC12)CO5 (stereo partly drawn) [Compound 74, (3α,5α,20R)-20,21-Epoxy-13,24-cyclo-18-norcholan-3-ol] | 206 to 211 °C (dec.) | 1.61 ± 0.18 | 5.46 ± 1.21 | 4.53 ± 0.75 | −0.01 ± 0.01 | >10000 nM | – | 64 ± 9 nM | None @ 10 | –

Source: US7781421B2, “Neuroactive 13, 24-cyclo-18, 21-dinorcholanes and structurally related pentacyclic steriods” (Washington University, priority 2003, dated 2010)
